≈ marks a conversion by molar mass, not a printed value. Where “and” joins values, the source holds several entries; their conditions need not be identical. Identical values can stand only once. Like-named read-outs stand apart in the source and are kept apart here. Where a SMILES comes first, the peptide text is derived from it. Bridges are numbered along the chain shown (N, C = ends).
Legend:
C. perfringens CVCC 51 [1] = test system: C. perfringens CVCC 51
[2] = test system: C. perfringens CVCC 46 genomic DNA; assay type: binding, Clostridium perfringens type A
C. perfringens CVCC 46 [3] = assay type: cell-based, Clostridium perfringens type A
C. perfringens CVCC 46 [4] = test system: C. perfringens CVCC 46
C. perfringens CVCC 46 [5] = test system: C. perfringens CVCC 46; remark: listed apart in the source
[6] = test system: C. perfringens type C CVCC 61 cells; conditions: cited from earlier work
C. perfringens JC2 [7] = test system: C. perfringens JC2
C. perfringens JZ10 [8] = test system: C. perfringens JZ10
[9] = test system: C. perfringens genomic DNA; assay type: binding, Clostridium perfringens
C. perfringens CVCC 46 [10] = assay type: cell-based, Clostridium perfringens type A; remark: listed apart in the source
C. perfringens CVCC 1137 [11] = test system: C. perfringens CVCC 1137
C. perfringens JT1 [12] = test system: C. perfringens JT1
C. perfringens CVCC 46 [13] = assay type: cell-based, Clostridium perfringens type A; remark: listed apart in the source
C. perfringens CVCC 46 [14] = test: microbe, parasite or virus in culture; conditions: Clostridium perfringens, CVCC46, read-out: MICa (MIC of drug used alone)
C. perfringens CVCC 51 [15] = test: microbe, parasite or virus in culture; conditions: Clostridium perfringens, CVCC51, 18 h
C. perfringens JT1 [16] = test: microbe, parasite or virus in culture; conditions: Clostridium perfringens, JT1, 18 h
C. perfringens CVCC 46 [17] = test: microbe, parasite or virus in culture; conditions: Clostridium perfringens, CVCC46, 18 h
C. perfringens JZ10 [18] = test: microbe, parasite or virus in culture; conditions: Clostridium perfringens, JZ10, 18 h
C. perfringens CVCC 1137 [19] = test: microbe, parasite or virus in culture; conditions: Clostridium perfringens, CVCC1137, 18 h
C. perfringens JC2 [20] = test: microbe, parasite or virus in culture; conditions: Clostridium perfringens, JC2, 18 h
[21] = CVCC 46, 2×MIC, 1×10^5 CFU/mL, 37°C, colony counts

With `CC[C@H](C)[C@@H]1NC(=O)[C@H](CO)NC(=O)[C@H](CCCCN)NC(=O)[C@@H]2CSSC[C@@H](C(=O)N[C@@H](Cc3ccc(O)cc3)C(=O)O)NC(=O)[C@H](CCCCN)NC(=O)[C@@H]3CSSC[C@H](NC(=O)[C@H](CCCCN)NC(=O)[C@H](C(C)C)NC(=O)[C@H](CC(=O)O)NC(=O)[C@H](CC(=O)O)NC(=O)[C@H](CCC(=O)O)NC(=O)[C@H](CCC(N)=O)NC(=O)[C@H](Cc4c[nH]c5ccccc45)NC(=O)[C@@H]4CCCN4C(=O)CNC(=O)[C@H](CC(N)=O)NC(=O)[C@@H](NC(=O)CNC(=O)[C@H](Cc4ccccc4)NC(=O)CN)CSSC[C@H](NC(=O)[C@H](Cc4ccc(O)cc4)NC(=O)CNC(=O)CNC(=O)[C@H](CCCCN)NC(=O)[C@H](Cc4ccc(O)cc4)NC(=O)CNC(=O)[C@H](CCCCN)NC1=O)C(=O)N[C@@H](C)C(=O)N[C@@H](CCCCN)C(=O)NCC(=O)NCC(=O)N[C@@H](Cc1ccccc1)C(=O)N[C@@H](C(C)C)C(=O)N3)C(=O)N[C@@H](Cc1c[nH]cn1)C(=O)N[C@@H](CC(N)=O)C(=O)N[C@@H](Cc1c[nH]cn1)C(=O)N2` [MP1102] (H-GFGCNGPWQEDDVKCHNHCKSIKGYKGGYCAKGGFVCKCY-OH; disulfide 4-30, 15-37, 19-39) as the compound, how does the MIC (C. perfringens CVCC 51 [1]; CVCC 51, 18 h) read?
Its MIC is 0.91 µM (≈ 3.99 µg/mL).

And the “Binding to genomic DNA (gel retardation)” value [2]?
Its value is “interacted with MDR C. perfringens CVCC 46 genomic DNA”.

And the “Peptide/DNA mass ratio for complete retardation of DNA migration” value [2]?
The value was greater than 10.0.

What about the “Bacterial regrowth in time-kill curve” value (C. perfringens CVCC 46 [3]) of the same compound?
The value was “no bacterial regrowth”.

And the “Time to 99.9% reduction of bacterial counts” value (from here on “Time to 99.9% reduction”) (C. perfringens CVCC 46 [3])?
Its value is no more than 1 h.

And the MBC (C. perfringens CVCC 46 [4]; CVCC 46, 18 h)?
Its MBC is 0.91 µM (≈ 3.99 µg/mL).

And the MIC (C. perfringens CVCC 46 [4]; CVCC 46, 18 h)?
The MIC was 0.91 µM (≈ 3.99 µg/mL).

What about the “MICa (MIC of drug used alone)” value (C. perfringens CVCC 46 [5]) of the same compound?
The value was 1.82 µM.

What about the “FICI, range over the tested antibiotics” value (C. perfringens CVCC 46 [5]; CVCC 46) of the same compound?
Its value is 0.375~1.0.

And the “PI-stained percentages of cells” value [6]?
The value was 3.11~5.67%.

And the MIC (C. perfringens JC2 [7]; JC2, 18 h)?
Its MIC is greater than 14.5 µM.

What about the MIC (C. perfringens JZ10 [8]; JZ10, 18 h) of the same compound?
The MIC was greater than 14.5 µM.

What about the “Change of CD spectrum of genomic DNA” value [9] of the same compound?
Its value is “DNA ellipticity intensity decreased”.

And the “PI-stained percentages of cells, range over time” value (C. perfringens CVCC 46 [10])?
Its value is 36.5~96.7%.

What about the MIC (C. perfringens CVCC 1137 [11]; CVCC 1137, 18 h) of the same compound?
Its MIC is 1.82 µM (≈ 7.98 µg/mL).

What about the MIC (C. perfringens JT1 [12]; JT1, 18 h) of the same compound?
Its MIC is 0.46 µM (≈ 2.02 µg/mL).

And the “Ratio of cells in phase I” value (C. perfringens CVCC 46 [13])?
The value was 8.14% and 13.65%.

Which MIC (C. perfringens CVCC 51 [1]; CVCC 51, broth microdilution, anaerobic 37°C, 12~18 h) does the source give for Bacitracin zinc here?
The MIC was 1.35 µM.

What about the “Time to 99.9% reduction” value (C. perfringens CVCC 46 [3]; [21]) of the same compound?
Its value is 8 h.

And the MIC (C. perfringens CVCC 46 [4]; CVCC 46, broth microdilution, 1×10^5 CFU/mL, anaerobic 37°C, 12~18 h, triplicate)?
Its MIC is 0.67 µM.

And the MBC (C. perfringens CVCC 46 [4]; CVCC 46, broth microdilution, anaerobic 37°C, 12~18 h, triplicate)?
The MBC was 1.34 µM.

And the “MICa (MIC of drug used alone)” value (C. perfringens CVCC 46 [5]; CVCC 46, chequerboard, drug alone, triplicate)?
The value was 0.67 µM.

What about the FIC (C. perfringens CVCC 46 [5]; combination Bacitracin zinc-MP1102, MIC in combination / MIC alone) of the same compound?
The FIC was 0.5.

What about the FIC (C. perfringens CVCC 46 [5]; combination Bacitracin zinc-NZ2114, MIC in combination / MIC alone) of the same compound?
Its FIC is 0.25.

And the MIC (C. perfringens JC2 [7]; JC2, broth microdilution, anaerobic 37°C, 12~18 h)?
The MIC was greater than 86.1 µM.

What about the MIC (C. perfringens JZ10 [8]; JZ10, broth microdilution, anaerobic 37°C, 12~18 h) of the same compound?
Its MIC is greater than 86.1 µM.

What about the MIC (C. perfringens CVCC 1137 [11]; CVCC 1137, broth microdilution, anaerobic 37°C, 12~18 h) of the same compound?
Its MIC is 1.35 µM.

And the MIC (C. perfringens JT1 [12]; JT1, broth microdilution, anaerobic 37°C, 12~18 h)?
Its MIC is 0.67 µM.

What does the source list for `CN(C)[C@@H]1C(O)=C(C(N)=O)C(=O)[C@@]2(O)C(O)=C3C(=O)c4c(O)ccc(Cl)c4[C@@](C)(O)[C@H]3C[C@@H]12` [Aureomycin]?
MIC (C. perfringens CVCC 46 [14]): 8.36 µM; MIC (C. perfringens CVCC 51 [15]): 1.04 µM (≈ 0.498 µg/mL); Time to 99.9% reduction of bacterial counts (C. perfringens CVCC 46 [3]; [21]): 2~4 h; Bacterial regrowth in time-kill curve (C. perfringens CVCC 46 [3]; CVCC 46, 2×MIC, followed for 10 h): regrowth of C. perfringens strain CVCC 46 was observed; MICC (MIC of drug used in combination) (C. perfringens CVCC 46 [5]; combination Aureomycin-MP1102, CVCC 46): 2.09 µM; FIC (C. perfringens CVCC 46 [5]; combination Aureomycin-MP1102, MIC in combination / MIC alone): 0.25; MICC (MIC of drug used in combination) (C. perfringens CVCC 46 [5]; combination Aureomycin-NZ2114, CVCC 46): 4.18 µM; FIC (C. perfringens CVCC 46 [5]; combination Aureomycin-NZ2114, MIC in combination / MIC alone): 0.5; MIC (C. perfringens JT1 [16]): 16.7 µM (≈ 8 µg/mL); MBC (C. perfringens CVCC 46 [17]): 8.36 µM (≈ 4 µg/mL); MIC (C. perfringens CVCC 46 [17]): 4.18 µM (≈ 2 µg/mL); MIC (C. perfringens JZ10 [18]): 16.7 µM (≈ 8 µg/mL); MIC (C. perfringens CVCC 1137 [19]): 0.52 µM (≈ 0.249 µg/mL); MIC (C. perfringens JC2 [20]): 16.7 µM (≈ 8 µg/mL)

With `CN[C@H](CC(C)C)C(=O)N[C@H]1C(=O)N[C@@H](CC(N)=O)C(=O)N[C@H]2C(=O)N[C@H]3C(=O)N[C@H](C(=O)N[C@H](C(=O)O)c4cc(O)cc(O)c4-c4cc3ccc4O)[C@H](O)c3ccc(c(Cl)c3)Oc3cc2cc(c3O[C@@H]2O[C@H](CO)[C@@H](O)[C@H](O)[C@H]2O[C@H]2C[C@](C)(N)[C@H](O)[C@H](C)O2)Oc2ccc(cc2Cl)[C@H]1O` [Vancomycin] as the compound, how does the MIC (C. perfringens CVCC 46 [14]) read?
The MIC was 0.69 µM.

What about the MIC (C. perfringens CVCC 51 [15]) of the same compound?
Its MIC is 0.69 µM (≈ 1 µg/mL).

What about the “Time to 99.9% reduction” value (C. perfringens CVCC 46 [3]) of the same compound?
The value was 8 h.

And the FIC (C. perfringens CVCC 46 [5])?
Its FIC is 0.5.

And the “MICC (MIC of drug used in combination)” value (C. perfringens CVCC 46 [5])?
Its value is 0.345 µM.

And the MIC (C. perfringens JT1 [16])?
The MIC was 0.69 µM (≈ 1 µg/mL).

And the MBC (C. perfringens CVCC 46 [17])?
Its MBC is 0.69 µM (≈ 1 µg/mL).

What about the MIC (C. perfringens CVCC 46 [17]) of the same compound?
Its MIC is 0.69 µM (≈ 1 µg/mL).

And the MIC (C. perfringens JZ10 [18])?
Its MIC is 22.1 µM (≈ 32 µg/mL).

And the MIC (C. perfringens CVCC 1137 [19])?
Its MIC is 0.69 µM (≈ 1 µg/mL).

What about the MIC (C. perfringens JC2 [20]) of the same compound?
The MIC was 22.1 µM (≈ 32 µg/mL).
